From ChEMBL document CHEMBL4616632, “Discovery of Cyclic Boronic Acid QPX7728, an Ultrabroad-Spectrum Inhibitor of Serine and Metallo-β-lactamases” (J Med Chem, 2020)

Tests used:
Escherichia coli [1] = test: Inhibition of Escherichia coli EC302 TEM-10 assessed as minimum concentration of compound needed to reduce the MIC of aztreonam to 4 ug/ml
Klebsiella pneumoniae [2] = test: Inhibition of Klebsiella pneumoniae KP1009 CTX-M-15 assessed as minimum concentration of compound required to reduce the MIC of aztreonam to 4 ug/ml
Klebsiella pneumoniae [3] = test: Inhibition of Klebsiella pneumoniae KP1054 VIM-1 assessed as minimum concentration of compound required to reduce the MIC of biapenem to 1 ug/ml
Enterobacter cloacae = test: Inhibition of Enterobacter cloacae ECL1002 AmpC assessed as minimum concentration of compound needed to reduce the MIC of aztreonam to 4 ug/ml
[4] = target: Beta-lactamase (Klebsiella pneumoniae) (UniProt Q93LQ9); test: Inhibition of Klebsiella pneumoniae KP1004 KPC-2 assessed as minimum concentration of compound needed to reduce the MIC of aztreonam to 4 ug/ml
Chain of Beta-lactamase (Klebsiella pneumoniae) (Q93LQ9 as listed by the source): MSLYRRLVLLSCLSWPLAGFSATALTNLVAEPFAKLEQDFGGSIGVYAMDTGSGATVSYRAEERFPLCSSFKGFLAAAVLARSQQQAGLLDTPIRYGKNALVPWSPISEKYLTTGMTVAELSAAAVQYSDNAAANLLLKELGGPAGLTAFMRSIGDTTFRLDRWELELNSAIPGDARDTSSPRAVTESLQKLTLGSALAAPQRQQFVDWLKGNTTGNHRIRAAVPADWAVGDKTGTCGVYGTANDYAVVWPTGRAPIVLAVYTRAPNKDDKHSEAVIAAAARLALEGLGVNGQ

Escherichia coli [5] = test: Inhibition of Escherichia coli KP308 SHV-5 assessed as minimum concentration of compound required to reduce the MIC of aztreonam to 4 ug/ml
Klebsiella pneumoniae [6] = test: Inhibition of Klebsiella pneumoniae KP1081 NDM-1 assessed as minimum concentration of compound required to reduce the MIC of biapenem to 1 ug/ml
[7] = target: Beta-lactamase OXA-23 (Acinetobacter baumannii) (UniProt Q9L4P2); test: Inhibition of Acinetobacter baumannii AB1054 OXA-23 assessed as minimum concentration of compound needed to reduce the MIC of meropenem to 8 ug/ml
Chain of Beta-lactamase OXA-23 (Acinetobacter baumannii) (Q9L4P2 whole entry): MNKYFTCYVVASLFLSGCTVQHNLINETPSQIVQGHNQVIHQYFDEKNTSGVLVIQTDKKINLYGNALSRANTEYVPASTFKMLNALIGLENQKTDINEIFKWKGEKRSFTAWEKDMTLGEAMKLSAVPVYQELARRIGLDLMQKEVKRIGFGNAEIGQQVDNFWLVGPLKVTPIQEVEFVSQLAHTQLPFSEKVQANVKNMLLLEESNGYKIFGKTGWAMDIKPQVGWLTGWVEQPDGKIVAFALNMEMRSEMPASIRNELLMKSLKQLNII

Klebsiella pneumoniae [8] = test: Inhibition of Klebsiella pneumoniae KP1160 IMP-26 assessed as minimum concentration of compound needed to reduce the MIC of meropenem to 1 ug/ml
Pseudomonas aeruginosa = test: Inhibition of Pseudomonas aeruginosa PAM 2035 AmpC assessed as minimum concentration of compound needed to reduce the MIC of aztreonam to 4 ug/ml
Escherichia coli [9] = test: Inhibition of Escherichia coli ECM6625 SHV-5 assessed as minimum concentration of compound needed to reduce the MIC of aztreonam to 4 ug/ml
Escherichia coli [10] = test: Inhibition of Escherichia coli ECM6619 TEM-10 assessed as minimum concentration of compound needed to reduce the MIC of aztreonam to 4 ug/ml
Acinetobacter baumannii = test: Inhibition of Acinetobacter baumannii AB1053 OXA-72 assessed as minimum concentration of compound needed to reduce the MIC of meropenem to 8 ug/ml

Compound | MEC (Escherichia coli [1]) | MEC (Klebsiella pneumoniae [2]) | MEC (Klebsiella pneumoniae [3]) | MEC (Enterobacter cloacae) | MEC [4] | MEC (Escherichia coli [5]) | MEC (Klebsiella pneumoniae [6]) | MEC [7] | MEC (Klebsiella pneumoniae [8]) | MEC (Pseudomonas aeruginosa) | MEC (Escherichia coli [9]) | MEC (Escherichia coli [10]) | MEC (Acinetobacter baumannii)
NC(=O)CS[C@H]1Cc2cccc(C(=O)O)c2OB1O | > 10 µg/mL | > 10 µg/mL | 2.5 µg/mL | > 10 µg/mL | 5 µg/mL | > 10 µg/mL | 0.6 µg/mL | – | – | – | – | – | –
O=C(O)c1cccc2c1OB(O)[C@H]1C[C@@H]21 | 5 µg/mL | 10 µg/mL | 10 µg/mL | 10 µg/mL | 0.16 µg/mL | 5 µg/mL | 1.25 µg/mL | 20 µg/mL | > 20 µg/mL | 2.5 µg/mL | 5 µg/mL | 5 µg/mL | 20 µg/mL
O=C(O)c1c(OCCF)ccc2c1OB(O)[C@@H](Sc1nncs1)C2 | 20 µg/mL | 20 µg/mL | 0.16 µg/mL | > 20 µg/mL | 5 µg/mL | 5 µg/mL | 0.6 µg/mL | – | 2.5 µg/mL | 20 µg/mL | – | – | –
O=C(O)c1cccc2c1OB(O)[C@@H](Sc1cccnc1)C2 | > 20 µg/mL | > 20 µg/mL | 1.25 µg/mL | > 20 µg/mL | > 20 µg/mL | > 20 µg/mL | 2.5 µg/mL | – | – | – | – | – | –
CSCCOc1ccc2c(c1C(=O)O)OB(O)[C@@H](Sc1nncs1)C2 | > 20 µg/mL | > 20 µg/mL | 1.25 µg/mL | > 20 µg/mL | 20 µg/mL | 10 µg/mL | 2.5 µg/mL | – | 0.6 µg/mL | 10 µg/mL | – | – | –
O=C(O)c1nccc2c1OB(O)CC2 | – | 2.5 µg/mL | 20 µg/mL | 1.25 µg/mL | 0.16 µg/mL | – | 1.25 µg/mL | 2.5 µg/mL | > 20 µg/mL | 0.3 µg/mL | 5 µg/mL | 0.08 µg/mL | 1.25 µg/mL
O=C(O)c1cccc2c1OB(O)CC2 | – | 20 µg/mL | 10 µg/mL | 5 µg/mL | 0.6 µg/mL | – | 1.25 µg/mL | 20 µg/mL | > 20 µg/mL | 0.6 µg/mL | 20 µg/mL | 10 µg/mL | > 20 µg/mL
COc1ccc2c(c1C(=O)O)OB(O)C1C2C1(F)F (stereo not given) | 5 µg/mL | 1.25 µg/mL | 10 µg/mL | 10 µg/mL | 1.25 µg/mL | 1.25 µg/mL | 2.5 µg/mL | 10 µg/mL | > 20 µg/mL | 10 µg/mL | 1.25 µg/mL | 5 µg/mL | 5 µg/mL
Nc1nnc(S[C@H]2Cc3ccc(OCC(F)F)c(C(=O)O)c3OB2O)s1 | > 20 µg/mL | > 20 µg/mL | 0.3 µg/mL | > 20 µg/mL | 10 µg/mL | > 20 µg/mL | 1.25 µg/mL | – | 1.25 µg/mL | 20 µg/mL | – | – | –
O=C(O)c1c(OC2COC2)ccc2c1OB(O)[C@@H](Sc1nncs1)C2 | > 20 µg/mL | > 20 µg/mL | 20 µg/mL | > 20 µg/mL | > 20 µg/mL | > 20 µg/mL | > 20 µg/mL | – | > 20 µg/mL | > 20 µg/mL | – | – | –
O=C(O)c1c(OCC2CC2)ccc2c1OB(O)[C@@H](Sc1nncs1)C2 | 20 µg/mL | > 20 µg/mL | 0.16 µg/mL | > 20 µg/mL | > 20 µg/mL | 10 µg/mL | 1.25 µg/mL | – | 0.3 µg/mL | 20 µg/mL | – | – | –
COc1ccc2c(c1C(=O)O)OB(O)C1CC21 (stereo not given) | 0.3 µg/mL | 0.3 µg/mL | 0.08 µg/mL | 0.3 µg/mL | 0.16 µg/mL | 0.3 µg/mL | 0.6 µg/mL | 1.25 µg/mL | 5 µg/mL | 5 µg/mL | 0.3 µg/mL | 0.3 µg/mL | 0.6 µg/mL
O=C(O)c1cccc2c1OB(O)[C@@H](OC1CNC1)C2 | > 20 µg/mL | > 20 µg/mL | 0.6 µg/mL | 2.5 µg/mL | > 20 µg/mL | > 20 µg/mL | 0.6 µg/mL | – | – | – | – | – | –
O=C(O)c1cccc2c1OB(O)[C@@H](Sc1ncccn1)C2 | > 20 µg/mL | > 20 µg/mL | 20 µg/mL | > 20 µg/mL | > 20 µg/mL | > 20 µg/mL | 10 µg/mL | – | – | – | – | – | –
COCCOc1ccc2c(c1C(=O)O)OB(O)[C@@H](Sc1nncs1)C2 | > 20 µg/mL | 20 µg/mL | 0.16 µg/mL | > 20 µg/mL | 20 µg/mL | 10 µg/mL | 0.6 µg/mL | – | 1.25 µg/mL | > 20 µg/mL | – | – | –
Cn1cnnc1S[C@H]1Cc2cccc(C(=O)O)c2OB1O | > 20 µg/mL | > 20 µg/mL | < 0.3 µg/mL | > 20 µg/mL | > 20 µg/mL | > 20 µg/mL | < 0.3 µg/mL | – | – | – | – | – | –
